What was measured:
[1] = test system: ICAM-1 on MM cells (CD38+/mCD45-); assay: ICAM-1 expression on myeloma cells from treated mice (disseminated RPMI-8226 model, flow cytometry); type: in vivo, SCID mice; details: tumor cells isolated from mice treated with standard of care therapies
Procedure: Organs for FACS analysis were collected at scarification of mice, and cells from tissues were prepared by mechanistic dissociation and dispase/collagenase enzymatic digestion (Gibco, France). Cells were stained with anti-human CD38 antibody (PerCP-Cy5, Becton Dickinson), an anti-mouse CD45 (PE, Becton Dickinson) and human ICAM-1 (B11 IgG1 AF647, BioInvent) and incubated in the dark for 15 min at room temperature. After the incubation, cells were washed twice and the surface fluorescence of cells was analyzed with a flow cytometer apparatus (LSRII) at the Flow Cytometry Facility of the University of Burgundy.
200 μl containing 10×10^6 of RPMI 8226 tumour cells was intravenously injected into the caudal vein of female SCID mice. The mice had been subjected to a whole body irradiation of mice (1.8 Gy, ^60Co, BioMEP) 24 to 72 hours prior to cell injection. At D1, tumor injected mice were randomized according to their individual body weight. All treatment started day 5 after tumor cell administration except for ALKERAN®, which started at day 10. All treatments were injected in a dose volume of 10 ml/kg/inj. Mice received one of the following treatments:
The health status and behavior of mice was recorded every day and body weight of mice was recorded twice a week. […] Upon termination, bone marrow, spinal cord, adrenal glands and kidneys were collected and examined for ICAM-1 expression on tumor cells. To distinguish cells of human versus murine origin, an anti-mouse CD45 mAb was used CD45. […] In addition, cells were stained with AF647 conjugated anti ICAM-1 mAb and thereafter analyzed in a FACS LSRII. Bone marrow was mechanically dissociated to a single cell suspension whereas adrenal glands, kidneys and spinal cord cells were prepared using a combination of mechanistic dissociation and dispase/collagenase digestion (Gibco, France). Prior to the experiment, dispase and collagenase treatments were shown not to effect ICAM-1 levels on MM cell lines.

ARH-77 cells [2] = assay: Disseminated scid/ARH-77 model of multiple myeloma; type: in vivo, scid mice; details: i.v. on Days 7, 10, 13, 16; antibody 2 mg/kg, bortezomib 0.5 mg/kg; vs control treatment
Procedure: ARH-77 cells or RPMI-8226 were injected intravenously into the SCID mice. (A) ARH-77 model. Animals received intravenous injections with antibody at 2 mg/kg or bortezomib (Velcade) at 0.5 mg/kg on Days 7, 10, 13, and 16 (as indicated by arrows in the graph). (B) RPMI-8226-model. B11 or control mAb was administered i.v at 2 mg/kg, twice weekly for 8 weeks, bortezomid, at 1 mg/kg, once weekly for 8 weeks, lenalidomide p.o with 2 mg/kg for 2 cycles consisting of 5 days of treatment and 2 days of wash out, melphalan i.v at 3 mg/kg, once weekly for 8 weeks, and dexamethasone (DXH) at 6 mg/kg/inj 3 times/week for 2 consecutive weeks. There were 6-10 mice per treatment group. Statistical significance was calculated using Log-rank Graphpad Prism software and determined at ***p<0.001. (C) To study the ICAM-1 level on human cells, the cells from different organs were stained and gated for CD38+/mCD45−/B11+. Left panel indicates the percentage of B11 positive cells in CD38+/mCD45 population and right panel the mean fluorescent intensity of the positive cells.
The anti-myeloma effect of B11 was examined in a disseminated model of multiple myeloma. The early and advanced disseminated model of multiple myeloma was performed at Oncodesign, Dijon, France. Briefly: 1×10^6 (early) or 5×10^6 (advanced) ARH-77 tumor cells in 200 μL of RPMI 1640 were injected intravenously (i.v) into the caudal vein of female scid mice (D0). Tumor cell injections were performed twenty four to forty eight hours after a whole body irradiation of mice (1.8 Gy, ^60Co, INRA, BRETENNIERES). The treatment was started at D5 RPMI-8226 model or D7 (ARH-77 model) […]. B11 or control mAb was administered i.v. at 2 mg/kg, twice weekly for 8 weeks, bortezomib, at 1 mg/kg, once weekly for 8 weeks, lenalidomide p.o with 2 mg/kg for 2 cycles consisting of 5 days of treatment and 2 days of wash out, melphalan i.v. at 3 mg/kg, once weekly for 8 weeks, and dexamethasone at 6 mg/kg 1 injected 3 times a week for 2 consecutive weeks.
The disseminated model of scid/ARH-77 is a well-established experimental model that resembles human multiple myeloma disease progression and disease manifestation in many respects (33). We utilized this model to further characterize IgG B11 anti-myeloma activity (FIG. 6A). Intravenous injection of irradiated scid mice with 1×10^6 ARH-77 cells was previously shown to result in their dissemination and establishment in mouse bone-marrow, and resulting osteolytic bone-lesions and hypercalcemia, and ultimately, in animal paralysis or difficulty of breathing at which time animals were immediately sacrificed. […]

[3] = test system: HUVEC and HMVEC endothelial cells; assay: PCD in normal ICAM-1 expressing endothelial cells; type: cell-based; details: resting or activated HUVEC/HMVEC
Procedure: Target cells were seeded in 96-well culture plates at a density of 2×10^6 cells/mL culture medium. Titrated concentrations of IgG1 B11 or different negative and positive control antibodies were added to the cells, in the absence or presence of anti-human Fab fragment (Jackson ImmunoResearch) for cross-linking. The cells were then incubated for 16 hours at 37° C. in a humidified atmosphere of 5% CO2. The cells were harvested and stained for Annexin V-488/Propidium Iodide (Invitrogen, Sweden) and analysed using flow cytometer (FACS Calibur, BD Bioscience).

[4] = test system: ICAM-1 expressing tumor cell lines; assay: Complement-dependent cytotoxicity (CDC) in tumor cell lines; type: cell-based; details: panel of ICAM-1 expressing tumor cell lines
Procedure: Target cells were harvested and incubated in RPMI medium with antibodies at 5 μg/mL or at titrated concentrations between 0.01-100 μg/mL for 60 min on ice. Cells were thereafter washed and resuspended in cold medium before dispension into flow cytometry tubes. Treatments were performed in triplicates. Human serum, normal or heat-inactivated, (Sigma, Sweden) was added to tubes and the samples were incubated for 2 h at 37° C. After completed incubation ToPo-Pro-3 was added at a final concentration of 0.3 μM and cells were analyzed for membrane permeabilization using flow cytometry.

ARH-77 cells [5] = assay: Subcutaneous scid/ARH-77 xenograft, treatment from the day after cell inoculation (prophylactic model); details: for anti-tumor activities of IgG B11 isotype switch variants (rank order): twice weekly treatment, s.c. ARH-77
Procedure: Tumor cells were injected subcutaneously into the left flank of SCID mice. Mice received twice-weekly intraperitoneal injections with B11, control antibody or rituximab at doses of 20, 2 and/or 0.2 mg/kg commencing one day after tumor cell inoculation. There were 8 to 10 animals per treatment group. (A) Tumor volume as a function of antibody dose. (B) Kaplan-Meier survival graph as a function of antibody dose. […] Statistical significance was calculated relative to control antibody treatment using Kruskal-Wallis Test (Nonparametric ANOVA) with Dunn's Multiple Comparisons Test (tumor volume) or the log-rank test (mouse survival) using Graphpad Instat or Prism software, respectively. Statistical significance was considered for *p<0.05, **p<0.01, and ***p<0.001.
Tumor cells were injected subcutaneously into the left flank of SCID mice. Mice received twice-weekly intraperitoneal injections with B11 at doses of 0.02-20 mg/kg commencing day after tumor cell inoculation. There were 8-10 animals per treatment group. (A) Tumor volume as a function of antibody dose. (B) Kaplan-Meier survival graph as a function of antibody dose. Statistical significance was calculated relative to control antibody treatment using Kruskal-Wallis Test (Nonparametric ANOVA) with Dunn's Multiple Comparisons Test (tumor volume) or the log-rank test (mouse survival) using Graphpad Instat or Prism software, respectively. Statistical significance was considered for *p<0.05, **p<0.01, and ***p<0.001. Graphs illustrate representative experiments out of several performed.
(A) ARH-77 cells were injected subcutaneously into the left flank of SCID mice (n=8 per group). Mice were treated with the different B11 isotypes twice weekly. […] Statistical significance was calculated relative to control antibody treatment using Kruskal-Wallis Test (Nonparametric ANOVA) with Dunn's Multiple Comparisons Test. Statistical significance was considered for *p<0.05, **p<0.01, and ***p<0.001.
Mice were anaesthetized with a mixture of sevofluran and oxygen prior to myeloma cell inoculation and 1-5×10^6 myeloma cells were then subcutaneously injected in a volume of 100 μl into the left flank. Treatment with antibodies by intraperitonial (i.p.) injections was started either the day after cell inoculation (prophylactic model) or when tumors reached a size of approximately 100 mm^3 (established model).

ARH-77 tumors = assay: Advanced (established, palpable tumors) scid/ARH-77 xenograft model; details: IgG B11 effective even at 100-fold lower dose (0.2 mg/kg) than rituximab
Procedure: Mice were anaesthetized with a mixture of sevofluran and oxygen prior to myeloma cell inoculation and 1-5×10^6 myeloma cells were then subcutaneously injected in a volume of 100 μl into the left flank. Treatment with antibodies by intraperitonial (i.p.) injections was started either the day after cell inoculation (prophylactic model) or when tumors reached a size of approximately 100 mm^3 (established model). Antibodies were administrated in PBS in a total volume of 200 μL. Treatment with PBS or isotype control was used as control. Tumors were measured with a digital calliper and the tumor volumes were calculated according to formula: width^2×length×0.52. Animals were sacrificed when the tumor sizes reached the ethical limit of 1.5 cm. Surviving mice were sacrificed after a maximum of 5 months. Blood samples collected from the vena cava were centrifuged at 2500 g for 15 min to obtain serum and the samples were stored at −20° C. Tumors were removed for immunohistochemistry, snap frozen and were kept at −85° C.

human FcγRIIIa = target: T1, human FcγRIIIa (Homo sapiens, UniProt P08637); assay: B11 isotype variant binding to FcγR (Biacore), human FcγRIIIa
T1 construct: made in house; host or cells: HEK293E (transient, adherent)
Procedure: His-tagged human FcγRIIIa or mouse FcγRIV were expressed transient in adherent HEK293E cells, purified using Ni-NTA chromatography and characterized using SDS-PAGE and/or Biacore. Surface plasmon resonance (SPR) measurements were performed using a Biacore 3000 instrument. Goat α-human-F(ab)′2 F(ab)′2 fragment (Jackson laboratories) was immobilised with a CM-5 chip using a standard amine coupling protocol. IgG1 B11, IgG4 B11, or 297Q B11 were diluted to 15 and 60 μg/mL respectively and added to the surface at […] for 3 min. His tagged human FcγRIIIa or mouse FcγRIV were pre-incubated with an α-HIS antibody (R&D Systems) at a 2:1 molar ratio before addition to the chip surface, 30 μL/min, 1 min. After each cycle the surface was regenerated twice with glycine buffer pH 1.7.

[6] = Serum antibody levels of treated xenografted mice (ELISA); type: in vivo; details: Dose 2 mg/kg; serum at end of experimentation
Procedure: We next performed a dose-titration experiment to establish IgG B11 in vivo potency and the minimal dose achieving maximal anti-tumor activity, using the scid/ARH-77 model system. […] Mouse serum antibody trough concentrations were determined by ELISA at the end of experimentation. Trough antibody concentrations were then plotted against percent of maximal in vivo anti-tumour activity, and against percent of maximal ICAM-1 receptor occupancy and tumour cell PCD at corresponding antibody concentrations in vitro (FIGS. 3C, 3D, 3E, 3F and 3G). Strikingly, a near perfect correlation between antibody concentration and in vitro tumour cell receptor occupancy, in vitro tumor cell PCD, and in vivo anti-tumour activity was observed, consistent with ICAM-1 dependent direct cell cytotoxicity underlying in vivo anti-tumour activity.

[7] = test system: B lymphoma cell line (CL-01); assay: Antibody-dependent cell-mediated cytotoxicity (ADCC) with natural killer effector cells; type: cell-based; details: human Natural Killer effector cells
From the text: Buffy coats from human donors (ordered through Blodcentralen, Lund) were used to isolate peripheral blood mononuclear cells (PBMCs), and subsequently NK cells. Briefly, peripheral blood components were separated using Ficoll Paque PLUS (Amersham Biosciences, Sweden) in LeucoSep tubes (Greiner Bio-One). The PBMC fraction was removed and thoroughly washed in ice-cold DPBS (Invitrogen), before magnetic labeling and separation of the NK cell population using positive or negative NK cell isolation kits and MACS LS columns (Miltenyi Biotec). The purity of the obtained NK cell fractions was analyzed using flow cytometry, after staining with α-CD56 antibodies (BD Biosciences). Target cells were harvested, and incubated in medium with or without the respective antibodies (2 μg/mL) for 60 min on ice. Cells were thereafter washed and resuspended in cold medium before dispension into FACS tubes. Subsequently, isolated NK cells were diluted in ADCC medium and dispensed together with the respective antibody-coated target cells at varying effector/target cell ratios (40:1, 20:1, 5:1 and 1:1). All experiments were performed in triplicates. After completed incubation ToPo-Pro-3 dye and counting beads (Invitrogen) were added and cells were analyzed for membrane permeabilization using flow cytometry.

T1 sequence (P08637 17-254): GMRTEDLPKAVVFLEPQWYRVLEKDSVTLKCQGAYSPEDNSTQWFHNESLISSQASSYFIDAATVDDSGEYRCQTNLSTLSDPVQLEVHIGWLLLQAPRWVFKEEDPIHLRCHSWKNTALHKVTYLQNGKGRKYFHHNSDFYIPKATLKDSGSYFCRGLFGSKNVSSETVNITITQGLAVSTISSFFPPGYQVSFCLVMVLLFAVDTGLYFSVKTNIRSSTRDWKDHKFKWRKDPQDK

Question: What does the source list for `CC(C)C[C@H](NC(=O)[C@H](Cc1ccccc1)NC(=O)c1cnccn1)B(O)O` [bortezomib, reference compound]?
Answer: ICAM-1 expression on tumor cells after treatment ([1]; listed as VELCADE®): still expressed at unchanged, high levels; ICAM-1 expression on tumor cells after treatment ([1]; listed as bortesomib): retained; animal survival (ARH-77 cells [2]): did not significantly enhance animal survival; time to symptomatic disease onset (ARH-77 cells [2]): insignificantly delayed disease onset

Question: With `Nc1cccc2c1CN(C1CCC(=O)NC1=O)C2=O` (stereo not drawn) [lenalidomide] as the molecule, how does the “ICAM-1 expression on tumor cells after treatment” value (“ICAM-1 expression on tumor cells” below) ([1]; listed as Revlimid®) read?
Answer: still expressed at unchanged, high levels

Question: And the “ICAM-1 expression on tumor cells” value ([1]; listed as revlimid)?
Answer: retained

Question: With `N[C@@H](Cc1ccc(N(CCCl)CCCl)cc1)C(=O)O` [melphalan] as the molecule, how does the “ICAM-1 expression on tumor cells” value ([1]; listed as AIKERAN®) read?
Answer: still expressed at unchanged, high levels

Question: And the “ICAM-1 expression on tumor cells” value ([1]; listed as alkeran)?
Answer: retained

Question: For `CC(=O)O[C@H]1C(=O)[C@@]2(C)[C@H]([C@H](OC(=O)c3ccccc3)[C@]3(O)C[C@H](OC(=O)[C@H](O)[C@@H](NC(=O)c4ccccc4)c4ccccc4)C(C)=C1C3(C)C)[C@]1(OC(C)=O)CO[C@@H]1C[C@@H]2O` [paclitaxel, reference compound], which “programmed cell death of normal endothelial cells” value [3] is on record?
Answer: induced significant endothelial cell and B cell programmed cell death

Question: With rituximab [reference compound] as the molecule, how does the “induction of CDC” value [4] read?
Answer: effectively induced CDC

Question: And the tumor growth (ARH-77 cells [5]; 20 mg/kg twice weekly i.p., commencing one day after tumor cell inoculation)?
Answer: significant anti-tumor activity albeit less efficaciously so compared to IgG B11

Question: And the animal survival (ARH-77 tumors)?
Answer: incapable of reducing tumor growth or promoting animal survival

Question: And the tumor growth (ARH-77 tumors)?
Answer: incapable of reducing tumor growth

B1: 297Q B11: FcγR-binding deficient mutant IgG1 (N297Q IgG1) isotype switch variant of B11 (antibody, V domains shown)
VH: EVQLLESGGGLVQPGGSLRLSCAASGFTFSNAWMSWVRQAPGKGLEWVAFIWYDGSNKYYADSVKGRFTISRDNSKNTLYLQMNSLRAEDTAVYYCARYSGWYFDYWGQGTLVTVSS
VL: QSVLTQPPSASGTPGQRVTISCTGSSSNIGAGYDVHWYQQLPGTAPKLLIYDNNNRPSGVPDRFSGSKSGTSASLAISGLRSEDEADYYCQSYDSSLSAWLFGGGTKLTVLG
Question: Which results are given for B1?
Answer: binding to human FcγRIIIa (human FcγRIIIa): did not bind to human FcγRIIIa; In vivo IgG Levels [6]: 9.6 ± 3. μg/mL; anti-tumor activities of IgG B11 isotype switch variants (rank order) (ARH-77 cells [5]): increased in the order of IgG1N297Q<IgG4<IgG1; ADCC of target tumor cells [7]: did not mediate ADCC of target tumor cells

B2: IgG4 B11: human IgG4 isotype switch variant of B11 (antibody, V domains shown)
VH: B1 VH
VL: B1 VL
Question: With B2 as the molecule, how does the “binding to human FcγRIIIa” value (human FcγRIIIa) read?
Answer: did not bind to human FcγRIIIa

Question: And the “In vivo IgG Levels” value [6]?
Answer: 13 ± 3.1 µg/mL

Question: What about the “anti-tumor activities of IgG B11 isotype switch variants (rank order)” value (ARH-77 cells [5]) of the same molecule?
Answer: increased in the order of IgG1N297Q<IgG4<IgG1

Question: And the “ADCC of target tumor cells” value [7]?
Answer: did not mediate ADCC of target tumor cells

Source: patent US20150352207A1, “USE OF ANTIBODIES AGAINST ICAM-1 IN COMBINATION WITH AN ANTI CANCER DRUG IN THE TREATMENT OF PATIENTS” (BIOINVENT INTERNATIONAL AB, priority 2013, published 2015)
